According to US4260612A, “Antiallergic nitrogen bridge-head compounds” (Chinoin Gyogyszer es Vecyeszeti Termekek Gyara Rt., priority 1977, dated 1981):
Values belong to the compound of their own block, whether it stands above or below them.

Columns and labels:
[1] = tested on: allergic reactions; test: PCA test (antiallergic activity, rats); assay type: in vivo; conditions: for ED50: Rattus norvegicus, iv; for ED50 / percental activity in the PCA test: rats
Experimental: (§1) The tests were carried out by the PCA test-method (Ovary: J. Immun. 81, 355, 1958) and the Church-test (British J. Pharm. 46, 56-66, 1972; Immunology 29, 527-534, 1975) and as comparing substance disodium chromoglycate is used. The test is carried out in rats.

[2] = tested on: allergic symptoms; conditions: orally; background statement; cited from earlier work
[3] = tested on: histamine; test: Released histamine in vitro (antiallergic tests incl. Church-test); assay type: cell-based, rats; conditions: Rattus norvegicus; read-out: Released histamine in vitro, ED50
Experimental: as §1

SMILES: O=C(O)c1cc(=O)c2c(OCC(O)COc3cccc4oc(C(=O)O)cc(=O)c34)cccc2o1 [disodium chromoglycolate, reference compound]
ED50 [1]: 1 µmol/kg
route dependence / oral activity ([1]; oral versus i.v., words): effective only when administered intravenously
oral activity of antiasthmatic agent [2]: not active orally

IC50 [3]: 12.3 µM
SMILES: CC1CC=C(Nc2ccccc2)c2ncc(C(=O)O)c(=O)n21 (stereo not shown) [Example 1, 9-(phenyl-amino)-6-methyl-4-oxo-6,7-dihydro-4H-pyrido[1,2-a]pyrimidine-3-carboxylic acid]
ED50 [1]: 1.3 µmol/kg
percental activity in the PCA test ([1]; single i.v. dose of 10 μmole/kg): 60%
percental activity in the PCA test ([1]; single i.v. dose of 320 μmole/kg): 100%
